Measurements from the NIST ThermoML archive (doi:10.1016/j.jct.2012.06.023).
Numbers after ± are expanded uncertainties.

Assays:
[1] = xn = mol fraction of the nth substance listed; details: x1 = 1; for surface tension liquid-gas: Wilhelmy plate; for viscosity: 101 kPa, Liquid, Concentric cylinders viscometry
[2] = refractive index (Na D-line) (dimensionless); details: 293.1 K; 101.33 kPa; Liquid; Standard Abbe refractometry
[3] = 298.15 K; for surface tension liquid-gas: Wilhelmy plate; for viscosity: 101.33 kPa, Liquid, Concentric cylinders viscometry

Structure (SMILES) | surface tension liquid-gas ([1]; 298.15 K) [mN/m] | viscosity ([1]; 298.15 K) [mPa·s] | surface tension liquid-gas ([1]; 303.15 K) [mN/m] | viscosity ([1]; 303.15 K) [mPa·s] | surface tension liquid-gas ([1]; 308.15 K) [mN/m] | viscosity ([1]; 308.15 K) [mPa·s] | surface tension liquid-gas ([1]; 313.15 K) [mN/m] | viscosity ([1]; 313.15 K) [mPa·s] | refractive index [2] | surface tension liquid-gas [3] [mN/m] | viscosity [3] [mPa·s]
CN(C)C=O [dimethylformamide] + CCCCCO | 35.2 ± 0.04 | 0.8162 ± 0.0092 | 34.1 ± 0.04 | 0.7678 ± 0.0091 | 33 ± 0.04 | 0.7262 ± 0.009 | 32 ± 0.03 | 0.678 ± 0.0089 |  |  | 
CCCCCO [pentan-1-ol] |  |  |  |  |  |  |  |  | 1.409 ± 0.02 | 24.55 ± 0.062 | 3.5 ± 0.018
CCCCCCCO [heptan-1-ol] |  |  |  |  |  |  |  |  | 1.424 ± 0.02 | 26.47 ± 0.13 | 5.944 ± 0.038
CN(C)C=O [dimethylformamide] |  |  |  |  |  |  |  |  | 1.429 ± 0.02 | 35.2 ± 0.04 | 0.8162 ± 0.0092
CN(C)C=O [dimethylformamide] + CCCCCCCO | 35.2 ± 0.04 | 0.8162 ± 0.0092 | 34.1 ± 0.04 | 0.7678 ± 0.0091 | 33 ± 0.04 | 0.7262 ± 0.009 | 32 ± 0.03 | 0.678 ± 0.0089 |  |  | 
CN(C)C=O [dimethylformamide] + CCCCCCO | 35.2 ± 0.04 | 0.8162 ± 0.0092 | 34.1 ± 0.04 | 0.7678 ± 0.0091 | 33 ± 0.04 | 0.7262 ± 0.009 | 32 ± 0.03 | 0.678 ± 0.0089 |  |  | 
CCCCCCO [hexan-1-ol] |  |  |  |  |  |  |  |  | 1.418 ± 0.001 |  | 4.593 ± 0.022
